Converted amounts (≈) assume the structure as drawn.
Columns and labels:
[1] = Solubility in H2O was measured; assay type: physicochemical; conditions: water
CHO = assay: Concentration that inhibits cell division by 50% after 72 hr for CHO cells was determined; assay type: functional; conditions: Cricetulus griseus, read-out: ED50 (the source's name)
J774.2 = assay: Concentration that inhibits cell division by 50% after 72 hr for J774.2 cells was determined; assay type: functional; conditions: Mus musculus, J774.2, 72 h; read-out: ED50 (the source's name)
Homo sapiens = species on record: Homo sapiens; assay: Effect on microtubule protein assembly was determined in vitro; assay type: functional

Compound | solubility [1] [µM] | EC50 (CHO) [µM] | EC50 (J774.2) [µM] | Assembly (Homo sapiens) [%]
CC(=O)O[C@H]1C(=O)[C@@]2(C)[C@H]([C@H](OC(=O)c3ccccc3)[C@]3(O)C[C@H](OC(=O)[C@H](C)O)C(C)=C1C3(C)C)[C@]1(OC(C)=O)CO[C@@H]1C[C@@H]2O | 1000 (≈ 659 µg/mL) | > 45 | 29 | 38
CC(=O)O[C@H]1C(=O)[C@@]2(C)[C@H]([C@H](OC(=O)c3ccccc3)[C@]3(O)C[C@H](OC(=O)[C@@H](O)Cc4ccccc4)C(C)=C1C3(C)C)[C@]1(OC(C)=O)CO[C@@H]1C[C@@H]2O | 160 (≈ 118 µg/mL) | 5.3 | 3.4 | 69
Nc1nc2c(ncn2[C@@H]2O[C@H](COP(=O)(O)OP(=O)(O)OP(=O)(O)O)[C@@H](O)[C@H]2O)c(=O)[nH]1 [GUANOSINE TRIPHOSPHATE] | – | – | – | 70
CC(=O)O[C@H]1C(=O)[C@@]2(C)[C@H]([C@H](OC(=O)c3ccccc3)[C@]3(O)C[C@H](OC(=O)[C@@H](O)CNC(=O)c4ccccc4)C(C)=C1C3(C)C)[C@]1(OC(C)=O)CO[C@@H]1C[C@@H]2O | 565 (≈ 439 µg/mL) | – | – | –
CC(=O)O[C@H]1C(=O)[C@@]2(C)[C@H]([C@H](OC(=O)c3ccccc3)[C@]3(O)C[C@H](OC(=O)[C@H](O)CNC(=O)c4ccccc4)C(C)=C1C3(C)C)[C@]1(OC(C)=O)CO[C@@H]1C[C@@H]2O | 615 (≈ 478 µg/mL) | 32 | 20 | 60
CC(=O)O[C@H]1C(=O)[C@@]2(C)[C@H]([C@H](OC(=O)c3ccccc3)[C@]3(O)C[C@H](OC(=O)[C@@H](C)O)C(C)=C1C3(C)C)[C@]1(OC(C)=O)CO[C@@H]1C[C@@H]2O | 820 (≈ 540 µg/mL) | > 45 | 27 | 31
CC(=O)O[C@H]1C(=O)[C@@]2(C)[C@H]([C@H](OC(=O)c3ccccc3)[C@]3(O)C[C@H](OC(=O)[C@H](O)Cc4ccccc4)C(C)=C1C3(C)C)[C@]1(OC(C)=O)CO[C@@H]1C[C@@H]2O | 175 (≈ 129 µg/mL) | 5.5 | 3.5 | 68
CC(=O)O[C@H]1C(=O)[C@@]2(C)[C@H]([C@H](OC(=O)c3ccccc3)[C@]3(O)C[C@H](OC(=O)[C@H](O)[C@@H](NC(=O)c4ccccc4)c4ccccc4)C(C)=C1C3(C)C)[C@]1(OC(C)=O)CO[C@@H]1C[C@@H]2O [PACLITAXEL] | – | 0.35 | 0.09 | 100
